{"source": "patent US8263601B2", "about": "“Deuterium substituted xanthine derivatives” (CoNCERT Pharmaceuticals, Inc., priority 2009, dated 2012)", "key": {"[1]": {"experiment": "Pharmacokinetic study of 435(S) and other representative compounds in chimps after oral dosing (Example 40)", "type": "in vivo", "settings": "species named in label measured in plasma", "protocol": "435(S) and representative compounds 121(S), 137(S), 421(S) and 437(S) were separately dissolved in warm (65° C.) water at a concentration [[of 10 mg/mL]]. The same protocol described for Example 39 was then followed for each representative compound."}, "[2]": {"experiment": "Pharmacokinetic study of pentoxifylline and Compound 435(S) in chimps after oral dosing (Example 38)", "type": "in vivo", "settings": "in vivo, po, 75 mg", "protocol": "Pentoxifylline and Compound 435(S) were separately dissolved in warm (65° C.) saline at a concentration at 10 mg/mL. A 1:1 mixture of the two compounds was then prepared containing a final concentration of 5 mg/mL of each compound and the mixture was then sterile filtered through a 0.2-μm filter.\nTwo chimps (one male and one female) were used in each of the oral and intravenous studies. Animals were fasted overnight prior to administration of compounds. All animals were sedated with ketamine (approximately 10 mg/kg) and/or telazol (approximately 5 mg/kg) prior to dosing. Intravenous administration was achieved by IV infusion of 75 mg of each compound (15 mL total dosing solution) over 10 minutes. Oral administration was achieved by oral gavage of a single 75 mg dose of each compound (15 mL total dosing solution). Blood samples (6 mL) were collected from the dosed chimps at various times prior to and after dosing. For intravenous administrations blood samples were collected at 0 min (preinfusion), 5 min, 9.5 min (immediately before the end of the infusion), then 6, 15, 30 and 45 min, and 1, 2, 4, 6, 8, 10 and 12 hr after the infusion is stopped. For oral administrations, blood samples were collected at 0 min (predose), 15 and 30 min, and 1, 1.5, 2, 4, 6, 8, 10 and 12 hr postdose.\nBlood samples were placed in tubes containing sodium heparin, mixed and stored on ice until centrifuged. Within 30 minutes of collection, plasma was isolated by centrifuging the blood samples and removing an aliquot (200 μL) of the resulting plasma. Each 200-μL aliquot of plasma was mixed with 400 μL acetonitrile and stored at −70° C. until further analysis by LC-MS/MS using an Applied Bio-systems API 4000 mass spectrometer.\nThe analysis of all samples by LC-MS/MS was performed as described above for the rat plasma samples in Example 37."}, "[3]": {"experiment": "Pharmacokinetic study in rats of (S)-M1 and Compound 435(S) after oral dosing (Example 37)", "type": "in vivo, male Sprague-Dawley rats", "settings": "oral gavage single 5 mg/kg dose, 1:1 mixture of (S)-M1 and 435(S), species named in label measured in plasma, −1D and −2D species included", "protocol": "(§1) (S)-M1 and Compound 435(S) (a deuterated form of (S)-M1) were separately dissolved in saline at a concentration of 10 mg/mL. A 1:1 mixture of the two compounds was then prepared containing a final concentration of 5 mg/mL of each compound, which was used for intravenous administration. For oral administration the mixture was further diluted in saline to a final concentration of 1 mg/mL for each compound.\n(§2) Three male Sprague-Dawley rats were used in each of the oral and intravenous studies. Animals were fasted overnight prior to administration of compounds. Intravenous administration was achieved by bolus injection of a single 5 mg/kg dose of the 1:1 combination into the cannulated jugular vein of the rats. Cannulation was achieved the day prior to dosing on rats that had been placed under anesthesia using ketamine (IM 30 mg/kg). Oral administration was achieved by oral gavage of a single 5 mg/kg dose. Blood samples (250 μL) were collected from the dosed rats at various times post-dosing (2 min, 5 min, 10 min, 20 min, 30 min, 1 hr, 2 hr, 3 hr, 4 hr, 5 hr, 6 hr) by retro-orbital sampling of the rats temporarily anesthetized with isoflurane. Blood samples were placed in tubes containing K2-EDTA and stored on ice until centrifuged. Within 30 minutes of collection, plasma was isolated by centrifugation. A 100-μL aliquot was removed, mixed with 200 μL of acetonitrile and stored at −20° C. until further analysis by LC-MS/MS using an Applied Bio-systems API 4000 mass spectrometer.\n(§3) Samples were analyzed for the presence of the administered compound, the corresponding ketone (pentoxifylline and Compound 409) and the corresponding M5 metabolite. Samples (10 μL) were injected into a Zorbax SB-C8 (Rapid Resolution) column (2.1×30 mm, 3.5 μm). The initial mobile phase condition was 100% A (10 mM ammonium acetate in water) and 0% B (methanol) with a flow rate at 0.5 mL/min. Mobile phase B was allowed to reach 55% in 3 minutes and from 55% to 90% in 1 minute before ramping back to 0% in another minute. The overall run time was 5 minutes. For pentoxifylline and its M1 and M5 metabolites, the precursor/product ion pairs were set at m/z 281/193 (M1), m/z 279/181 (pentoxifylline), and m/z 267/221 (M5).\n(§4) For Compound 435(S) and Compound 409 more than one ion pair was set up for to detect species that arose from loss of deuterium. […] This loss of deuterium appears to occur both in vivo and ex vivo by an unknown mechanism. The addition of acetonitrile to serum samples was used to stop any additional ex vivo deuterium loss prior to analysis. Typically, no more than 2 deuterium atoms were replaced by hydrogen. For Compound 435(S), there is a deuterium at the methinyl position which was lost upon oxidation to the keto-compound 409. Reduction of 409 to an M1 metabolite introduced a proton at the methinyl position. When serum from animals dosed with 435(S) were analyzed to quantitate administered compound and metabolites, compound species were included with one and two less side chain deuteriums in the total amounts (referred to hereinafter as the “−1D” and the “−2D” species). Thus, for Compound 435(S) and Compound 409 separate ion pairs were set up to detect the compound and its corresponding −1D and −2D species. For Compound 435(S) three ion pairs were detected: m/z 291/197, 290/197, and […]. For Compound 409 ion pairs of m/z 288/186, 287/186 and 286/186 were monitored. Inclusion of −1D and −2D species in the measurements of Compound 409 and Compound 435(S) more accurately quantitates the total active species and is reasonable based on what is known about the metabolism and activities of pentoxifylline and its M-1 metabolites. Increased plasma exposure to Compound 409 or any M-1 metabolites of 409 would be desirable. This includes the −1D and −2D species.\n(§5) [drawing 78] which has no deuterium on its acid side chain, only one ion pair was used at m/z 271/225. The internal standard for the analysis was indiplon."}, "[4]": {"experiment": "Pharmacokinetic study of pentoxifylline and Compound 435(S) in chimps after oral dosing (Example 39)", "type": "in vivo", "settings": "oral gavage 65 mg each of pentoxifylline and 435(S) in water, species named in label measured in plasma", "protocol": "Pentoxifylline and Compound 435(S) were tested according to a protocol similar to the Oral Dosing protocol followed in Example 38, except that (a) the compounds were separately dissolved in water rather than saline; (b) the mixture of the two compounds was not sterile filtered; and (c) oral administration was achieved by oral gavage of a single 65 mg dose of each compound (13 mL total dosing solution)."}, "[5]": {"experiment": "Pharmacokinetic study in rats of (S)-M1 and Compound 435(S) after intravenous dosing (Example 37)", "type": "in vivo, male Sprague-Dawley rats", "settings": "intravenous bolus single 5 mg/kg dose of 1:1 combination of (S)-M1 and 435(S), species named in label measured in plasma", "protocol": "as §1, §2, §3, §4, §5"}, "[6]": {"experiment": "in vivo", "design": "species or system male beagle dogs", "settings": "dog, po, 2.5 mg/kg", "protocol": "Metabolism of the title compounds were studied following oral administration to male beagle dogs. Blood samples were removed from dosed dogs at various time points and plasma isolated therefrom. The plasma samples were used for the determination of plasma drug levels by LC-MS/MS (liquid chromatography with tandem mass spectrometry) for estimating pharmacokinetic parameters.\nCompound 409 and pentoxifylline were dissolved separately in saline to a concentration of 4 mg/mL. A 1:1 (v/v) mixture of the two solutions was prepared to yield a solution having a final concentration of 2 mg/mL of both Compound 409 and pentoxifylline.\nTwo male beagle dogs were fasted overnight and then orally dosed via gavage with 2.5 mg/kg of Compound 409 and pentoxifylline using the mixture described above. Blood samples (1.5-2 mL) were collected via the femoral vein at 0 min (pre-dose), 15 min, 30 min, 45 min, 1 hr, 1.5 hr, 2 hr, 3 hr, 4 hr, 6 hr, 8 hr, 10 hr, 12 hr, 16 hr and 24 hr post-dose. Blood was stored on ice prior to centrifugation to obtain plasma samples. Centrifugation took place within 1 hour of blood collection to harvest plasma (maximum volume). The plasma was decanted immediately and frozen/stored at −70° C. until analysis."}, "[7]": {"settings": "female, plasma, po, 65 mg, Table 17 iii): female chimp, 435(S) and 421(S), read-out: AUC0-12 Female"}, "[8]": {"settings": "male, plasma, po, 65 mg, Table 17 iii): male chimp, 435(S) and 421(S), read-out: AUC0-12 Male"}, "[9]": {"settings": "female, plasma, po, 65 mg, Table 17 iv): female chimp, 435(S) and 437(S), read-out: AUC0-12 Female"}}, "note": "Where two headings read alike, the source gives them in different places."}
{"molecule": "[2H]C([2H])([2H])[C@H](O)C([2H])([2H])CCCn1c(=O)c2c(ncn2C)n(C)c1=O", "note": "[Compound 121(S), S-1-(4,4,6,6,6-d5-5-Hydroxyhexyl)-3,7-dimethyl-1H-purine-2,6(3H,7H)-dione]", "values": [{"measurement": "AUC(0-t)", "setting": "[1]; female, plasma, po, 65 mg, Table 17 i): female chimp, 435(S) and 121(S), read-out: AUC0-12 Female", "result": 105, "unit": "ng·h/mL"}, {"measurement": "AUC(0-t)", "setting": "[1]; male, plasma, po, 65 mg, Table 17 i): male chimp, 435(S) and 121(S), read-out: AUC0-12 Male", "result": 304, "unit": "ng·h/mL"}]}
{"molecule": "[2H]C([2H])([2H])[C@]([2H])(O)C([2H])([2H])CCCn1c(=O)c2c(ncn2C)n(C)c1=O", "note": "[Compound 137(S), (S)-1-(4,4,5,6,6,6-d6-5-Hydroxyhexyl)-3,7-dimethyl-1H-purine-2,6(3H,7H)-dione]", "values": [{"measurement": "AUC(0-t)", "setting": "[1]; female, plasma, po, 65 mg, Table 17 ii): female chimp, 435(S) and 137(S), read-out: AUC0-12 Female", "result": 163, "unit": "ng·h/mL"}, {"measurement": "AUC(0-t)", "setting": "[1]; male, plasma, po, 65 mg, Table 17 ii): male chimp, 435(S) and 137(S), read-out: AUC0-12 Male", "result": 63, "unit": "ng·h/mL"}]}
{"molecule": "[2H]c1nc2c(c(=O)n(CCCC([2H])([2H])[C@@H](O)C([2H])([2H])[2H])c(=O)n2C)n1C", "note": "[Compound 421(S), (S)-1-(4,4,6,6,6-d5-5-hydroxyhexyl)-3,7-dimethyl-8-d-1H-purine-2,6(3H,7H)-dione]", "values": [{"measurement": "AUC(0-t)", "setting": "[1]; [7]", "result": 634, "unit": "ng·h/mL"}, {"measurement": "AUC(0-t)", "setting": "[1]; [8]", "result": 743, "unit": "ng·h/mL"}]}
{"molecule": "[2H]c1nc2c(c(=O)n(CCCC([2H])([2H])[C@@]([2H])(O)C([2H])([2H])[2H])c(=O)n2C)n1C", "note": "[Compound 437(S), (S)-8-d1-1-(4,4,5,6,6,6-d6-5-Hydroxyhexyl)-3,7-dimethyl-1H-purine-2,6(3H,7H)-dione]", "values": [{"measurement": "AUC(0-t)", "setting": "[1]; [9]", "result": 1180, "unit": "ng·h/mL"}, {"measurement": "AUC(0-t)", "setting": "[1]; male, plasma, po, 65 mg, Table 17 iv): male chimp, 435(S) and 437(S), read-out: AUC0-12 Male", "result": 757, "unit": "ng·h/mL"}]}
{"molecule": "Cn1cnc2c1c(=O)n(CCCC(=O)O)c(=O)n2C", "note": "[Compound M5, reference compound]", "values": [{"measurement": "AUC0-∞ Female", "setting": "[2]", "result": 1868, "unit": "ng·h/mL"}, {"measurement": "AUC0-∞ Male", "setting": "[2]", "result": 1456, "unit": "ng·h/mL"}, {"measurement": "AUC0-12 Female", "setting": "[1]; Table 17 i): female chimp, 435(S) and 121(S)", "result": 653, "unit": "ng·h/mL"}, {"measurement": "AUC0-12 Male", "setting": "[1]; Table 17 i): male chimp, 435(S) and 121(S)", "result": 630, "unit": "ng·h/mL"}, {"measurement": "AUC0-12 Female", "setting": "[1]; Table 17 ii): female chimp, 435(S) and 137(S)", "result": 635, "unit": "ng·h/mL"}, {"measurement": "AUC0-12 Male", "setting": "[1]; Table 17 ii): male chimp, 435(S) and 137(S)", "result": 539, "unit": "ng·h/mL"}, {"measurement": "AUC0-∞", "setting": "[3]", "result": "2985 ± 601", "unit": "ng·h/mL"}, {"measurement": "AUC0-12 Female", "setting": "[4]; female chimp", "result": 811, "unit": "ng·h/mL"}, {"measurement": "AUC0-12 Male", "setting": "[4]; male chimp", "result": 817, "unit": "ng·h/mL"}, {"measurement": "AUC0-∞", "setting": "[5]", "result": "1795 ± 521", "unit": "ng·h/mL"}]}
{"molecule": "[2H]c1nc2c(c(=O)n(CCCC(=O)O)c(=O)n2C)n1C", "note": "[Deuterated M5 (M5b)]", "values": [{"measurement": "AUC(0-t)", "setting": "[1]; [7]", "result": 350, "unit": "ng·h/mL"}, {"measurement": "AUC(0-t)", "setting": "[1]; [9]", "result": 416, "unit": "ng·h/mL"}, {"measurement": "AUC(0-t)", "setting": "[1]; [8]", "result": 447, "unit": "ng·h/mL"}]}
{"molecule": "pentoxifylline [reference compound]", "values": [{"measurement": "Ave. AUC", "setting": "[6]", "result": 448, "unit": "ng·h/mL"}, {"measurement": "Ave. Cmax", "setting": "[6]", "result": 784, "unit": "ng/mL"}]}
